Measured values: patent US11767310B2, “Nicotinamide RIPK1 inhibitors” (AbbVie Inc., priority 2021, dated 2023)
Where two headings read alike, the source gives them in different places.

How the values were obtained:
EPHA8 = EPHA8 (Homo sapiens (Human), UniProt P29322); test: Kinase binding screen; details: read-out: Percent Control at 100 nM Compound Concentration
EGFR(L858R) = EGFR(L858R) (Homo sapiens (Human), UniProt P00533, L858R); test: Kinase binding screen; details: read-out: Percent Control at 100 nM Compound Concentration
KIT(A829P) = KIT(A829P) (Homo sapiens (Human), UniProt P10721, A829P); test: Kinase binding screen; details: read-out: Percent Control at 100 nM Compound Concentration
DDR1 = DDR1 (Homo sapiens (Human), UniProt Q08345); test: Kinase binding screen; details: read-out: Percent Control at 100 nM Compound Concentration
FLT3(N841I) = FLT3(N841I) (Homo sapiens (Human), UniProt P36888, N841I); test: Kinase binding screen; details: read-out: Percent Control at 100 nM Compound Concentration
PIK3CA(Q546K) = PIK3CA(Q546K) (Homo sapiens (Human), UniProt P42336, Q546K); test: Kinase binding screen; details: read-out: Percent Control at 100 nM Compound Concentration
[1] = molecular target: TYK2(JH1domain-catalytic) (Homo sapiens (Human), UniProt P29597); test: Kinase binding screen; details: read-out: Percent Control at 100 nM Compound Concentration
NEK3 = NEK3 (Homo sapiens (Human), UniProt P51956); test: Kinase binding screen; details: read-out: Percent Control at 100 nM Compound Concentration
ANKK1 = ANKK1 (Homo sapiens (Human), UniProt Q8NFD2); test: Kinase binding screen; details: read-out: Percent Control at 100 nM Compound Concentration
TTK = TTK (Homo sapiens (Human), UniProt P33981); test: Kinase binding screen; details: read-out: Percent Control at 100 nM Compound Concentration
[2] = molecular target: RSK1(Kin.Dom.2-C-terminal) (Homo sapiens (Human), UniProt Q15418); test: Kinase binding screen; details: read-out: Percent Control at 100 nM Compound Concentration
PRKG1 = PRKG1 (Homo sapiens (Human), UniProt Q13976); test: Kinase binding screen; details: read-out: Percent Control at 100 nM Compound Concentration
CDKL5 = CDKL5 (Homo sapiens (Human), UniProt O76039); test: Kinase binding screen; details: read-out: Percent Control at 100 nM Compound Concentration
YANK1 = YANK1 (Homo sapiens (Human), UniProt Q8WU08); test: Kinase binding screen; details: read-out: Percent Control at 100 nM Compound Concentration
VRK2 = VRK2 (Homo sapiens (Human), UniProt Q86Y07); test: Kinase binding screen; details: read-out: Percent Control at 100 nM Compound Concentration
[3] = molecular target: RSK1(Kin.Dom.1-N-terminal) (Homo sapiens (Human), UniProt Q15418); test: Kinase binding screen; details: read-out: Percent Control at 100 nM Compound Concentration
FAK = FAK (Homo sapiens (Human), UniProt Q05397); test: Kinase binding screen; details: read-out: Percent Control at 100 nM Compound Concentration
ASK2 = ASK2 (Homo sapiens (Human), UniProt O95382); test: Kinase binding screen; details: read-out: Percent Control at 100 nM Compound Concentration
PRKCQ = PRKCQ (Homo sapiens (Human), UniProt Q04759); test: Kinase binding screen; details: read-out: Percent Control at 100 nM Compound Concentration
CAMKK2 = CAMKK2 (Homo sapiens (Human), UniProt Q96RR4); test: Kinase binding screen; details: read-out: Percent Control at 100 nM Compound Concentration
JNK1 = JNK1 (Homo sapiens (Human), UniProt P45983); test: Kinase binding screen; details: read-out: Percent Control at 100 nM Compound Concentration
KIT(L576P) = KIT(L576P) (Homo sapiens (Human), UniProt P10721, L576P); test: Kinase binding screen; details: read-out: Percent Control at 100 nM Compound Concentration
[4] = Prodrug bioconversion in intestinal S9 cell fractions; format: in vitro ADME; details: 0.25 mg/mL
Protocol: Phosphatase enzymes are […] expressed with unique tissue specific isoforms and are key catalysts in the conversion of phosphate-containing prodrugs. To determine if exemplary phosphate prodrug compounds of the invention are enzymatically converted to the parent molecule across relevant species, the prodrug compounds were incubated with intestinal S9 cell fractions obtained from mouse, rat, dog, monkey, and human.
Phosphate prodrugs were incubated (1 μM) for up to 2 hours in Tris-Cl buffer (pH 7.4) containing 3 mM magnesium chloride, intestinal S9 protein ([…] (ms, rat, hu, Table F) from mouse, rat, dog, monkey or human. Incubations were conducted in the absence and presence of 1 mM sodium orthovanadate, a phosphatase inhibitor. Prodrug depletion and parent formation were monitored by LC-MS/MS and normalized to internal standard as the analyte peak area ratio.

Sequence of PRKCQ (Q04759 whole entry): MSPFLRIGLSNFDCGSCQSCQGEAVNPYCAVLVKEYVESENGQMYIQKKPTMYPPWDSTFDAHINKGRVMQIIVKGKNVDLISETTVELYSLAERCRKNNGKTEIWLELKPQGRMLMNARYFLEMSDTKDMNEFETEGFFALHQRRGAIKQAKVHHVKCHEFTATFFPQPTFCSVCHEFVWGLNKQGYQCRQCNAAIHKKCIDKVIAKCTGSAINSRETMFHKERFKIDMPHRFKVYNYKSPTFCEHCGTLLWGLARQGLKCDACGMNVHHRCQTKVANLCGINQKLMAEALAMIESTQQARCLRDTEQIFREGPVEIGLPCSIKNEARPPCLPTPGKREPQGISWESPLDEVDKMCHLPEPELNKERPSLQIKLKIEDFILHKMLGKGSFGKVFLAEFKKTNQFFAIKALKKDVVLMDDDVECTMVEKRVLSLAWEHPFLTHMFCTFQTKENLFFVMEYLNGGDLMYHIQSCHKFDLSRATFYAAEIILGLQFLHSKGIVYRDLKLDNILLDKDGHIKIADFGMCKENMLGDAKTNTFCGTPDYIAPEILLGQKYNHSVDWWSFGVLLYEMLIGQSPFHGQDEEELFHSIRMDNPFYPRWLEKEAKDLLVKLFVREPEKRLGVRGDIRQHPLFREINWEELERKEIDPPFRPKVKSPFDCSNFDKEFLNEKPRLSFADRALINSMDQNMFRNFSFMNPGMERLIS
Sequence of ASK2 (O95382 whole entry): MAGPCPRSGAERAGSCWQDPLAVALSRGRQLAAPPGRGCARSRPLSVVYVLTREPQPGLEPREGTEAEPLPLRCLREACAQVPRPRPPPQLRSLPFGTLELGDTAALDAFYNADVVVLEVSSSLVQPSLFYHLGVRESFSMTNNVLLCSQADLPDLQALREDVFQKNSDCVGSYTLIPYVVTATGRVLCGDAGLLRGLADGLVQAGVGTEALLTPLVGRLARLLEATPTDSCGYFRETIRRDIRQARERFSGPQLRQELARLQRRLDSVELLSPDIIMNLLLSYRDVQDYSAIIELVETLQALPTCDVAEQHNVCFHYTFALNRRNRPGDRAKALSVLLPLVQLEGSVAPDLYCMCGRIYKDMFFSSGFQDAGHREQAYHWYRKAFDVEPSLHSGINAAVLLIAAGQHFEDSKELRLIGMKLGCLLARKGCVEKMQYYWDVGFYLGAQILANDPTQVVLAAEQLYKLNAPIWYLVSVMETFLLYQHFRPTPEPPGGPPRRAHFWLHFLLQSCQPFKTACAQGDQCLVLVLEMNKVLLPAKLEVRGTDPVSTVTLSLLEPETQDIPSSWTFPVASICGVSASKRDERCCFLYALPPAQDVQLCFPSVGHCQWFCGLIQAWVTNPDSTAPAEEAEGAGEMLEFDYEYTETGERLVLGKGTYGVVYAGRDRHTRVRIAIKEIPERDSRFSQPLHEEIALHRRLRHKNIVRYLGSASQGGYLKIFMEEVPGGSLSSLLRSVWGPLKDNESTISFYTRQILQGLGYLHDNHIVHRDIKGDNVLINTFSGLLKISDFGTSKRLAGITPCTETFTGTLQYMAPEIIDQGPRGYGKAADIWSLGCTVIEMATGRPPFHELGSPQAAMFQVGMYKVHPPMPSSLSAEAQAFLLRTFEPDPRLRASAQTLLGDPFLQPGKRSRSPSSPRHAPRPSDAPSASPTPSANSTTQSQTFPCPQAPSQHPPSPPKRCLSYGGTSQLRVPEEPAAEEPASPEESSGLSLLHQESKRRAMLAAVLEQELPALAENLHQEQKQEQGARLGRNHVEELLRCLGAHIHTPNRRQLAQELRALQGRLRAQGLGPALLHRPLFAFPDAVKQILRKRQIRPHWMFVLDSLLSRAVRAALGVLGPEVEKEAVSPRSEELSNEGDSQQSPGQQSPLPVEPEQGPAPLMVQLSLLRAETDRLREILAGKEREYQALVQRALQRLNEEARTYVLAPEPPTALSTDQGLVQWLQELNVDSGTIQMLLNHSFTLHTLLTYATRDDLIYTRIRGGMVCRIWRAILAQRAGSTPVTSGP
Sequence of VRK2 (Q86Y07 whole entry): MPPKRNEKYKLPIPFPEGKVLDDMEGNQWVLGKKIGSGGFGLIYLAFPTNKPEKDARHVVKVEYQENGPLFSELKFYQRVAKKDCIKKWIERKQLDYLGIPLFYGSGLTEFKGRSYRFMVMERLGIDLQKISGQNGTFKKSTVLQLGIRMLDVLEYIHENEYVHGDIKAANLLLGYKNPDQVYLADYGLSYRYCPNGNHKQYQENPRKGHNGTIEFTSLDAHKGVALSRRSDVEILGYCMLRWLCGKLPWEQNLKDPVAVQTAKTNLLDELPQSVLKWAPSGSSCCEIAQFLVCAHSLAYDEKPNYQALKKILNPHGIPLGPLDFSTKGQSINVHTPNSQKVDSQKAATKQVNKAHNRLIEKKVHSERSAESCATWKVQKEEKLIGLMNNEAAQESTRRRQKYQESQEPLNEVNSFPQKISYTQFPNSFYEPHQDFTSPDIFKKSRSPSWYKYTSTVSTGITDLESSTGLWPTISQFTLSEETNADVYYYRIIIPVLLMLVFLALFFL
Sequence of PIK3CA(Q546K) (P42336 whole entry Q546K): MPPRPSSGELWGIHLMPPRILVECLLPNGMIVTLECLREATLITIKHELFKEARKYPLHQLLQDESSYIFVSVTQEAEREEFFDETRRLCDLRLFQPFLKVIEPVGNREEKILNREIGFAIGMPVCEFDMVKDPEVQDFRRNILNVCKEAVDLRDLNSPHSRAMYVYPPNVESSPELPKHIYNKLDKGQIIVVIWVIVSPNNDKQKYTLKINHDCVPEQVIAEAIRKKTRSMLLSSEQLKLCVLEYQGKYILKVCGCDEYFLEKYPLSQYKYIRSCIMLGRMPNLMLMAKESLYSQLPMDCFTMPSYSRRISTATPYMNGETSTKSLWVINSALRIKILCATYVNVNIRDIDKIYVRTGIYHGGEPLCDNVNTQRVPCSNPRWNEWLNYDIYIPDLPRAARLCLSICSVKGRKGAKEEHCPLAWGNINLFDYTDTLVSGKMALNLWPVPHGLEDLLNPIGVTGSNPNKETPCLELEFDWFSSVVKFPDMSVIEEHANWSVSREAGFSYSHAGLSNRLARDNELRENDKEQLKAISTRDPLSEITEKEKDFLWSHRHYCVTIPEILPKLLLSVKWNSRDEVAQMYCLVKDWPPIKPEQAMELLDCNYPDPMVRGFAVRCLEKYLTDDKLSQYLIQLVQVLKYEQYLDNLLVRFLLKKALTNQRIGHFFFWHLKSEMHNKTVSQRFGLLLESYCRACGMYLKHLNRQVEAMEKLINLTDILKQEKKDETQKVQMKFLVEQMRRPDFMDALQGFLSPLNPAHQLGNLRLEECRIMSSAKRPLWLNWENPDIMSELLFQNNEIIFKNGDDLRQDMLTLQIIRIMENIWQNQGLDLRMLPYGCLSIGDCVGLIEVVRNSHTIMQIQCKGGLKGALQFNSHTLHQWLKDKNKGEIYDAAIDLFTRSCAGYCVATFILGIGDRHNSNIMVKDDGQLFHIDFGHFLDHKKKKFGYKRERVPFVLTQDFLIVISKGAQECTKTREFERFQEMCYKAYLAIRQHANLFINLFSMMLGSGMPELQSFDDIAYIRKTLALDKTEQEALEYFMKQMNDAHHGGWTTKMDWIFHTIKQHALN
Sequence of RSK1(Kin.Dom.2-C-terminal) (Q15418 418-675): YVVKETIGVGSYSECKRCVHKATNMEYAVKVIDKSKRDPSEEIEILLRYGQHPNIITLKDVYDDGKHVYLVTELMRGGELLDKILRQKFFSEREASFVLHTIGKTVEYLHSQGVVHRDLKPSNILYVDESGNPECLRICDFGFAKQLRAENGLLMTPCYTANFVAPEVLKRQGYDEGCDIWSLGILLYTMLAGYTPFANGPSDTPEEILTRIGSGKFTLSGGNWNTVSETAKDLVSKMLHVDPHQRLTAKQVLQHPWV
Sequence of YANK1 (Q8WU08 whole entry): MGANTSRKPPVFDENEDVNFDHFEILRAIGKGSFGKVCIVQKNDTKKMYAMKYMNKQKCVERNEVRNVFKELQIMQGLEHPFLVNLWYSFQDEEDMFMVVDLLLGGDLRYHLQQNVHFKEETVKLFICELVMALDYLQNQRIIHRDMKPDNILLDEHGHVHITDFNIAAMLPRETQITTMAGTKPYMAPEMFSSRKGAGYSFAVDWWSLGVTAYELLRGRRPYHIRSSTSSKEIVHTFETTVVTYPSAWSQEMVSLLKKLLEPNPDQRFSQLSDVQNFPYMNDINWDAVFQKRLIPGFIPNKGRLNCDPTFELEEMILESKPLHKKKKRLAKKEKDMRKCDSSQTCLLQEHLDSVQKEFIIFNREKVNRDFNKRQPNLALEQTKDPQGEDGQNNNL
Sequence of CAMKK2 (Q96RR4 whole entry): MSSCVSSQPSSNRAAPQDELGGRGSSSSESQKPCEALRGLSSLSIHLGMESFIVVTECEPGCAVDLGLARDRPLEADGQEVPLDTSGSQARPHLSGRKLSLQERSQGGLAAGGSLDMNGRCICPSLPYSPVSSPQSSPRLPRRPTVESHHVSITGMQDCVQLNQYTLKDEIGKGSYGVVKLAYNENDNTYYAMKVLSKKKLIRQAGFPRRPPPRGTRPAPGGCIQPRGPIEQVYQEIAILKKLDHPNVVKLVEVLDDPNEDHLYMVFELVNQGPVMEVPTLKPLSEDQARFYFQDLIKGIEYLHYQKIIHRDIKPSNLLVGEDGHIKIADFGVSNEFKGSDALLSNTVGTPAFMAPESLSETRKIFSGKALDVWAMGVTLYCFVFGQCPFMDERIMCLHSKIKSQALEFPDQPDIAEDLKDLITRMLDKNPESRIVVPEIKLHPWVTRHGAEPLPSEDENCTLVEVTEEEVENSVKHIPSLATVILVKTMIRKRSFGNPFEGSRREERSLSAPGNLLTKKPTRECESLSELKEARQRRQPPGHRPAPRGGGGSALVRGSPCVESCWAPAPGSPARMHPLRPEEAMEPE

CN(C[C@@H](O)Cc1ccccc1)C(=O)c1cncc(C#Cc2cnn(C(F)F)c2)c1 [Example 2, (S)-5-((1-(difluoromethyl)-1H-pyrazol-4-yl)ethynyl)-N-(2-hydroxy-3-phenylpropyl)-N-methylnicotinamide]
remaining activity at 0.1 µM (EPHA8; EPHA8): 99% | remaining activity at 0.1 µM (EGFR(L858R); EGFR(L858R)): 100% | remaining activity at 0.1 µM (KIT(A829P); KIT(A829P)): 100% | remaining activity at 0.1 µM (DDR1; DDR1): 100% | remaining activity at 0.1 µM (FLT3(N841I); FLT3(N841I)): 99% | remaining activity at 0.1 µM (PIK3CA(Q546K); PIK3CA(Q546K)): 96% | remaining activity at 0.1 µM ([1]; TYK2(JH1domain-catalytic)): 100% | remaining activity at 0.1 µM (NEK3; NEK3): 96% | remaining activity at 0.1 µM (ANKK1; ANKK1): 100% | remaining activity at 0.1 µM (TTK; TTK): 100% | remaining activity at 0.1 µM ([2]; RSK1(Kin.Dom.2-C-terminal)): 100% | remaining activity at 0.1 µM (PRKG1; PRKG1): 92% | remaining activity at 0.1 µM (CDKL5; CDKL5): 93% | remaining activity at 0.1 µM (YANK1; YANK1): 100% | remaining activity at 0.1 µM (VRK2; VRK2): 91% | remaining activity at 0.1 µM ([3]; RSK1(Kin.Dom.1-N-terminal)): 96% | remaining activity at 0.1 µM (FAK; FAK): 100% | remaining activity at 0.1 µM (ASK2; ASK2): 100% | remaining activity at 0.1 µM (PRKCQ; PRKCQ): 94% | remaining activity at 0.1 µM (CAMKK2; CAMKK2): 99% | remaining activity at 0.1 µM (JNK1; JNK1): 92% | remaining activity at 0.1 µM (KIT(L576P); KIT(L576P)): 100%

CN(C[C@H](Cc1ccccc1)OP(=O)(O)O)C(=O)c1cncc(C#Cc2cnn(C(F)F)c2)c1 [Example 19, (S)-1-(5-((1-(difluoromethyl)-1H-pyrazol-4-yl)ethynyl)-N-methylnicotinamido)-3-phenylpropan-2-yl dihydrogen phosphate]
Clint (prodrug disappearance) ([4]; Dog, Experiment 1): 331 μL/min/mg intestinal S9 protein | Clint (prodrug disappearance) ([4]; Dog, Experiment 2): 387 μL/min/mg intestinal S9 protein | Clint (prodrug disappearance) ([4]; Dog, Experiment 3): 397 μL/min/mg intestinal S9 protein | Clint (prodrug disappearance) ([4]; Dog, Mean of 3 experiments): 371.7 μL/min/mg intestinal S9 protein | Clint (prodrug disappearance) ([4]; Monkey, Experiment 1): 87.5 μL/min/mg intestinal S9 protein | Clint (prodrug disappearance) ([4]; Monkey, Experiment 2): 60.3 μL/min/mg intestinal S9 protein | Clint (prodrug disappearance) ([4]; Monkey, Experiment 3): 60.7 μL/min/mg intestinal S9 protein | Clint (prodrug disappearance) ([4]; Monkey, Mean of 3 experiments): 69.5 μL/min/mg intestinal S9 protein | remaining activity at 0.1 µM (EPHA8): 100% | remaining activity at 0.1 µM (EGFR(L858R)): 94% | remaining activity at 0.1 µM (KIT(A829P)): 99% | remaining activity at 0.1 µM (DDR1): 100% | remaining activity at 0.1 µM (FLT3(N841I)): 96% | remaining activity at 0.1 µM (PIK3CA(Q546K)): 88% | remaining activity at 0.1 µM [1]: 100% | remaining activity at 0.1 µM (NEK3): 96% | remaining activity at 0.1 µM (ANKK1): 100% | remaining activity at 0.1 µM (TTK): 82% | remaining activity at 0.1 µM [2]: 100% | remaining activity at 0.1 µM (PRKG1): 100% | remaining activity at 0.1 µM (CDKL5): 86% | remaining activity at 0.1 µM (YANK1): 100% | remaining activity at 0.1 µM (VRK2): 95% | remaining activity at 0.1 µM [3]: 100% | remaining activity at 0.1 µM (FAK): 100% | remaining activity at 0.1 µM (ASK2): 98% | remaining activity at 0.1 µM (PRKCQ): 98% | remaining activity at 0.1 µM (CAMKK2): 100% | remaining activity at 0.1 µM (JNK1): 87% | remaining activity at 0.1 µM (KIT(L576P)): 98%
